Measurements taken from patent US20060063711A1, “Use of sglt homolog” (priority 2002, published 2006).

Key:
[1] = target: T1, human SGLT homolog (Homo sapiens, UniProt Q2M3M2, I269M); assay: substrate specificity, α-methyl glucose uptake test in human SGLT homolog-transfected COS7 cells; type: cell-based; set-up: expressed in transfected cells; host or cells: COS7 cells; conditions: sugar added at 0, 1 and 10 mM
T1 sequence (Q2M3M2 8-681 I269M limits assumed): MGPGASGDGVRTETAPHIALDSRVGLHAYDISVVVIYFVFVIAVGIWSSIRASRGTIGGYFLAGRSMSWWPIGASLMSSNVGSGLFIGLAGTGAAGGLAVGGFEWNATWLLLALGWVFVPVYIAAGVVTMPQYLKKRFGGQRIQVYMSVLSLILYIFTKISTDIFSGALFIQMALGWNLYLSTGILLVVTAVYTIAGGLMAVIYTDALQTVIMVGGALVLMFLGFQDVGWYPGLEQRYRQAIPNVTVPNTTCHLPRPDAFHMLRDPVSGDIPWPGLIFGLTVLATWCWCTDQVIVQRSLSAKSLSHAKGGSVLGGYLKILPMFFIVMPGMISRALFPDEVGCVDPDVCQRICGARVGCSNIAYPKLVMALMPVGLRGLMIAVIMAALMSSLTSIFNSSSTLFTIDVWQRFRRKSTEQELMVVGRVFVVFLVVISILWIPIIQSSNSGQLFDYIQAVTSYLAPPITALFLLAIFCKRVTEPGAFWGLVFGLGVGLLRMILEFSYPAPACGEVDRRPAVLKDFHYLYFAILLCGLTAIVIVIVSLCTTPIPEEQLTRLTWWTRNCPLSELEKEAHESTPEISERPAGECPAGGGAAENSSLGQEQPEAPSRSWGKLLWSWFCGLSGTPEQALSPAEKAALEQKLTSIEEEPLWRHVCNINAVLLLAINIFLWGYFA
Experimental: (§1) The human SGLT homolog or human SGLT1-transfected COS7 cells were prepared and the respective substrate specificities were examined. The α-methyl glucose uptake test was carried out in accordance with the procedures described in Am. J. Physiol., 270: G833-G843, 1996 and J. Clin. Invest., 93: 397-404, 1994. The cells were plated on 100 μl of DMEM medium containing 10% FBS charged in a 96-well plate in a cell density of 3×10^4 cells/well, followed by culturing overnight at 37° C. Each well was washed 3 times with a reaction buffer solution supplemented with 125 mM N-Methyl-D-Glucamine (1.2 mM KH2PO4, 2.5 mM CaCl2, 1.2 mM MgSO4, 4 mM Glutamine, 10 mM HEPES (pH 7.2), 0.1 mg/ml BSA) and further cultured for an hour in the same buffer solution to remove the glucose remained in the cells. Next, 150 mM NaCl was added to the reaction buffer solution above and glucose or galactose was added to the mixture in 0, 1 and 10 mM, respectively. Then 90 μl each of the thus prepared mixtures was added per well. […] After washing 3 times with 200 μl of chilled PBS, 100 μl each of liquid scintillator was added per well and the radioactivity of ^14C taken up into the cells was counted with a scintillation counter.

[2] = target: T2, human SGLT1 (Homo sapiens, UniProt P13866); assay: substrate specificity, α-methyl glucose uptake test in human SGLT1-transfected COS7 cells; type: cell-based; set-up: expressed in transfected cells; host or cells: COS7 cells; conditions: sugar added at 0, 1 and 10 mM
T2 sequence (P13866 1-664): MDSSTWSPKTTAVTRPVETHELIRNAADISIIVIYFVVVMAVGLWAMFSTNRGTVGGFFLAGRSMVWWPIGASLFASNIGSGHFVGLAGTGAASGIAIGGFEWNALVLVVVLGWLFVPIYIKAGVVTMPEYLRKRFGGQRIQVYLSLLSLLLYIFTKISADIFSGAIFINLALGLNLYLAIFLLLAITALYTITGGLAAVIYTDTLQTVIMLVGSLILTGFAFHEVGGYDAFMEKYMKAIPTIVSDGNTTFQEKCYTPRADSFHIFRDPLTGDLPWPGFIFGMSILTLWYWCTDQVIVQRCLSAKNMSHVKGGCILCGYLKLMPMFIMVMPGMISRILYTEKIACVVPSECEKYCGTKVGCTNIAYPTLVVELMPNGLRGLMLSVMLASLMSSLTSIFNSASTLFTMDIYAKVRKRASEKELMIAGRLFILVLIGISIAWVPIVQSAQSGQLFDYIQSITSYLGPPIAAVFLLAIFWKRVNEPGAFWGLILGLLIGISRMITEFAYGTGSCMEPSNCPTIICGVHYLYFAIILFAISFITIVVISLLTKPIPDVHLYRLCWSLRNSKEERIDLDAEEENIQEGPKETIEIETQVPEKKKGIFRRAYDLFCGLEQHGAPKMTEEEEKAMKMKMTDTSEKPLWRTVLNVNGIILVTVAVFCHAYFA
Experimental: as §1

[3] = target: T2, human SGLT1; assay: kinetic analysis of glucose uptake in human SGLT1-transfected COS7 cells
Experimental: (§2) The human SGLT homolog or the human SGLT1-transfected COS7 cells were prepared and subjected to kinetic analysis of glucose uptake, respectively. […] The cells were plated on 100 μl of DMEM medium containing 10% FBS charged in a 96-well plate in a cell density of 3×10^4 cells/well, followed by culturing overnight at 37° C. […] Then 90 μl each of the thus prepared mixtures was added per well. In addition, 10 μl each of α-methyl glucose in a final concentration of 1 mM, which contained 0.02 μCi of [^14C]-α-methyl glucose (Amersham Pharmacia Biotech, Inc.), was added per well to carry out a glucose uptake reaction for an hour. After washing 3 times with 200 μl of chilled PBS, 100 μl each of liquid scintillator was added per well and the radioactivity of ^14C taken up into the cells was counted with a scintillation counter to determine Km and Vmax in the glucose uptake.

[4] = target: T1, human SGLT homolog; assay: kinetic analysis of glucose uptake in human SGLT homolog-transfected COS7 cells
Experimental: as §2

[5] = read-out: Km in the glucose uptake, α-methyl glucose 0 to 20 mM, 150 mM NaCl
[6] = α-methyl glucose 0 to 20 mM, 150 mM NaCl

Structure (SMILES) | affinity (competition of α-methyl glucose uptake) [1] | affinity (competition of α-methyl glucose uptake) [2] | Km [3, 5] | Vmax in the glucose uptake [3, 6] | Km [4, 5] | Vmax in the glucose uptake [4, 6]
O=C[C@H](O)[C@@H](O)[C@@H](O)[C@H](O)CO [galactose] | little affinity | had affinity | – | – | – | –
COC1OC(CO)C(O)C(O)C1O (stereo not drawn) [α-methyl glucose] | – | – | 1.8 mM | 3.9 nmol/hour/106 cells | 7.9 mM | 8.0 nmol/hour/106 cells
